Data from US8748448B2, “Combination analgesic employing opioid agonist and neutral antagonist” (AIKO Biotechnology, priority 2007, dated 2014).
Values joined by “and” are separate entries in the source; they are usually repeats but may differ in a detail not shown here. Identical values can stand only once. “Also recorded” adds a separate entry of the source.

How the values were obtained:
[1] = system: hydrocodone effects: GI transit (peripheral) vs. antinociception (central); assay: Peripheral vs. central potency, (antinociception ID50)/(GI transit ID50); assay type: in vivo, mice
[2] = system: morphine-induced slowing of gastrointestinal transit; assay: Oral-cecal transit time (lactulose-hydrogen breath test) with 10 mg morphine i.v.; assay type: in vivo, human
[3] = system: morphine-induced analgesia; assay: Cold pressor test with 10 mg morphine i.v.; assay type: in vivo, human; conditions: doses up to 20 mg i.v.
[4] = system: morphine-induced pupil constriction; assay: Pupillometry with 10 mg morphine i.v.; assay type: in vivo, human; conditions: doses up to 20 mg i.v.
[5] = system: gastrointestinal activity in methadone-dependent subjects; assay: Methadone maintenance subjects: laxation and oral-cecal transit time; assay type: in vivo, human
Source text: The aims of this first-in-human study were to examine the pharmacokinetics of 6β-naltrexol to measure two key characteristics of 6β-naltrexol in highly opioid dependent persons: unwanted aspects of opioid antagonism such as withdrawal, and preferential suppression of opioid effects on the gastrointestinal tract compared to the central nervous system. Eight subjects were enrolled. Of these subjects, four were ineligible for dosing with 6β-naltrexol: three due to small bowel bacterial overgrowth and one due to difficulty with IV catheter insertion. […] The remaining two subjects tolerated the 1.0 mg dose and reported a willingness to take higher doses of 6β-naltrexol.
Laxation was experienced for one subject (25%; 101 minutes post dose) at the 0.05 mg dose, three subjects (75%; 2, 17, and 40 minutes post dose) at the 0.5 mg dose, and two subjects (67%; both at 5 minutes post dose) at the 1.0 mg dose. […] In the two subjects who did undergo oral-cecal transit time testing (lactulose/H2 test), 6β-naltrexol accelerated GI transit time at doses of 0.25 mg and above. A quantitative evaluation of this test was not possible because of insufficient number of subjects (data from only two subjects were evaluable, while a third subject had elevated base-line H2 levels, and a fourth subject was not tested), but a detectable reversal of GI slowing at 0.25 mf 6β-naltrexol is consistent with the finding that regulator bowel movement occurred with two subjects at 0.5 mg 6β-naltrexol.

[6] = Methadone maintenance subjects: serum 6β-naltrexol pharmacokinetics; assay type: in vivo, human; conditions: 1.0 mg dose
Description: Using an assay with a lower limit of quantification of 0.5 ng/mL, 6β-naltrexol was detectable in plasma for only six hours. Determination of terminal half-life of elimination was not feasible because of lack of sufficient assay sensitivity.

[7] = system: morphine-induced antinociception; conditions: cited from earlier work
[8] = system: stereotypic circling induced by morphine; conditions: non-dependent and chronically dependent mice; cited from earlier work
[9] = Neutral antagonist comparison (Table 3)
[10] = Oral bioavailability of the neutral antagonists
[11] = Concentrations in plasma and brain tissue after i.p. injection (LC/MS/MS); conditions: for plasma concentration as metabolite after the naltrexone dose: after naltrexone 1 mg/kg i.p.
[12] = system: hydrocodone induced GI inhibition; assay: GI transit assay (charcoal meal): reversal of hydrocodone induced GI inhibition
[13] = 6β-naltrexol plasma pharmacokinetics after i.v. infusion, opioid-naïve volunteers (eIND); conditions: humans
[14] = system: opioid withdrawal in methadone-dependent subjects; assay: Double-blind ascending dose study in methadone maintenance subjects: withdrawal scales, VAS, vital signs, pupillometry, tolerability; conditions: for tolerability: b346: at all but the highest dose (1.0 mg)
[15] = 1 mg/kg i.p., 60 min after injection
[16] = 10 mg/kg i.p., 10 min after injection
[17] = 10 mg/kg i.p., 60 min after injection

For 6β-naltrexol, the “Fold-Shift (antinociception ID50)/(GI transit ID50)” value ([1]; antagonist p.o./hydrocodone p.o. co-administered) was 9.53 and 9.5, the “selectivity in blocking peripheral over central opioid effects” value ([1]; mice, oral administration, earlier experiments) was “approximately tenfold” and the “therapeutic window (peripheral side effects reduced without inhibition of analgesia)” value ([1]; mouse, orally co-administered with hydrocodone) was 0.1 to 3.0 mg/kg. The “fold more potent peripherally than centrally” value ([1]; over all administration routes) was 5-10 fold, the “effect of 20 mg on morphine's GI effects” value ([2]; 20 mg i.v., 10 mg morphine i.v.) was “completely blocking; also recorded: completely suppressing” and the “peripheral over central potency” value ([2]; humans) was “at least tenfold”. For the same substance, the “effect on morphine-induced analgesia” value [3] was “no detectable effect”, the “effect on morphine-induced pupil constriction” value [4] was “no detectable effect” and the subjects experiencing laxation ([5]; 0.05 mg dose) was 25%. The “time of laxation post dose” value ([5]; 0.05 mg dose) was 101 min, the subjects experiencing laxation ([5]; 0.5 mg dose) was 75% and the “effect on bowel movement” value ([5]; 0.5 mg i.v.) was “near normal bowel movement; also recorded: immediate bowel movement”. For the same substance, the subjects experiencing laxation ([5]; 1.0 mg dose) was 67%, the “time of laxation post dose” value ([5]; 1.0 mg dose, both subjects) was 5 min and the “Lowest dose producing laxation” value ([5]; individual patients) was 0.5 mg (2×) and 0.05 mg. For the same substance, the “dose sufficient initially to cause laxation” value ([5]; iv, methadone maintenance patients) was 0.5 mg, the “doses accelerating GI transit time (lactulose/H2 test)” value ([5]; two evaluable subjects) was ≥ 0.25 mg and the AUC ([6]; Subject 1) was 7.8 ng·h/mL. It also gave a CL ([6]; Subject 1) of 128 L/h, a t1/2 ([6]; Subject 1) of 2.2 h and an AUC ([6]; Subject 2) of 7.6 ng·h/mL. It also gave a CL ([6]; Subject 2) of 131 L/h, a t1/2 ([6]; Subject 2) of 2.43 h and a Cmax ([6]; Subject 2, serum) of 3.2 ng/mL. The “effect on morphine-induced antinociception” value ([7]; administered intraperitoneally, Wang et al. 2001) was “reverses”, the “potency for reversing morphine-induced antinociception, less potent than naltrexone” value ([7]; published observation, depending on route of administration) was 5-10 fold and the “effect on stereotypic circling induced by morphine” value [8] was “prevents”. The “Half-life of active metabolites” value [9] was 12 h, the “Bioavailability for CNS (central) effects” value ([9]; given orally) was ~25% and the “Strength (as compared to 6β-naltrexol)” value ([9]; given orally, opioid agonist naïve or non-dependent subject) was 1. For the same substance, the “oral bioavailability (into the circulation), estimated” value ([10]; humans, estimated) was “approximately 25%”, the bioavailability ([10]; rodent, previously determined data not shown) was 14% and the oral bioavailability ([10]; species not stated) was ~20%. The Brain concentration ([11]; 1 mg/kg i.p., 10 min after injection) was 7 ± 6 ng/g, the Plasma concentration ([11]; 1 mg/kg i.p., 10 min after injection, mean±SD, n=3) was 61 ± 7 ng/mL and the Brain concentration [11, 15] was 9 ± 1 ng/g. For the same substance, the Plasma concentration [11, 15] was 24 ± 28 ng/mL, the Brain concentration [11, 16] was 89 ± 6 ng/g and the Plasma concentration [11, 16] was 857 ± 122 ng/mL. The Brain concentration [11, 17] was 74 ± 14 ng/g, the Plasma concentration [11, 17] was 75 ± 25 ng/mL and the “change of levels at 60 min from those measured at 10 min” value ([11]; after i.p. injection) was “had not changed”. For the same substance, the “plasma concentration as metabolite after the naltrexone dose” value ([11]; 10 min) was 1.9 ng/mL, the “plasma concentration as metabolite after the naltrexone dose” value ([11]; 60 min) was 1.7 ng/mL and the “detectability as metabolite after the naltrexone dose” value ([11]; plasma and brain tissue, method sensitive to approximately 1 ng/mL (g)) was “detectable in plasma but not brain tissue”. For the same substance, the “GI Transit ID50” value ([12]; antagonist i.v., hydrocodone A90 3.2 mg/kg i.v.) was 0.0443 mg/kg, the “GI Transit ID50” value ([12]; antagonist p.o. co-administered with hydrocodone A90 32 mg/kg p.o.) was 1.290 mg/kg and the “GI Transit ID50” value ([12]; antagonist p.o., hydrocodone A90 3.2 mg/kg i.v.) was 0.410 mg/kg. For the same substance, the induction of diarrhea ([12]; on administration of the antagonist) was “absent”, the “blood half-life relative to most commonly used oral opioid analgesic formulations” value [13] was 3-4 times and the “mean terminal plasma elimination half-life” value ([13]; i.v. infusion 3 mg or 10 mg) was 11.1 ± 2.4 h. For the same substance, the withdrawal symptoms ([14]; 0.5 mg i.v., methadone-dependent subjects) was “minimal peripheral withdrawal and no detectable CNS withdrawal”, the “subjects tolerating the dose rather well” value ([14]; 1 mg i.v.) was 3 of 4 and the “overall withdrawal (VAS, SOWS, OOWS, vital signs)” value ([14]; 0.05-1.0 mg) was “minimal”. For the same substance, the tolerability ([14]; 0.05-1.0 mg) was “well tolerated”, the tolerability ([14]; 0.05-1.0 mg, listed as 6β-Naltrexol) was “generally well tolerated” and the “Diastolic BP, peak value” ([14]; dose 0.05 mg) was 83.0 ± 5.9 mmHg. For the same substance, the “Heart Rate, peak value” ([14]; dose 0.05 mg) was 61.8 ± 6.2 bpm, the “SOWS (total), peak value” ([14]; dose 0.05 mg) was 0.8 ± 1.0 and the “Systolic blood pressure (BP), peak value” ([14]; dose 0.05 mg) was 121.3 ± 7.0 mmHg. The “VAS Any Drug Effect, peak value” ([14]; dose 0.05 mg) was 0.5 ± 1.0, the “VAS Bad Drug Effect, peak value” ([14]; dose 0.05 mg) was 0.8 ± 1.5 and the “VAS Good Drug Effect, peak value” ([14]; dose 0.05 mg) was 0.3 ± 0.5. The “VAS Opioid Withdrawal, peak value” ([14]; dose 0.05 mg) was 1.3 ± 2.5, the “VAS Sickness, peak value” ([14]; dose 0.05 mg) was 0.50 ± 1.00 and the “OOWS (total), peak value” ([14]; dose 0.05 mg, mean ± standard deviation) was 0.8 ± 0.5. For the same substance, the “Diastolic BP, peak value” ([14]; dose 0.15 mg) was 76.5 ± 5.1 mmHg, the “Heart Rate, peak value” ([14]; dose 0.15 mg) was 59.5 ± 2.9 bpm and the “OOWS (total), peak value” ([14]; dose 0.15 mg) was 1.5 ± 0.6. The “SOWS (total), peak value” ([14]; dose 0.15 mg) was 1.3 ± 1.9, the “Systolic blood pressure (BP), peak value” ([14]; dose 0.15 mg) was 118.5 ± 10.0 mmHg and the “VAS Any Drug Effect, peak value” ([14]; dose 0.15 mg) was 1.5 ± 1.7. For the same substance, the “VAS Bad Drug Effect, peak value” ([14]; dose 0.15 mg) was 17.9 ± 32.5, the “VAS Good Drug Effect, peak value” ([14]; dose 0.15 mg) was 2.2 ± 2.8 and the “VAS Opioid Withdrawal, peak value” ([14]; dose 0.15 mg) was 1.4 ± 1.3. For the same substance, the “VAS Sickness, peak value” ([14]; dose 0.15 mg) was 9.3 ± 17.2, the “Diastolic BP, peak value” ([14]; dose 0.5 mg) was 80.3 ± 5.7 mmHg and the “Heart Rate, peak value” ([14]; dose 0.5 mg) was 61.8 ± 5.7 bpm. The “OOWS (total), peak value” ([14]; dose 0.5 mg) was 3.5 ± 1.3, the “SOWS (total), peak value” ([14]; dose 0.5 mg) was 4.3 ± 2.2 and the “Systolic blood pressure (BP), peak value” ([14]; dose 0.5 mg) was 118.8 ± 7.6 mmHg. The “VAS Any Drug Effect, peak value” ([14]; dose 0.5 mg) was 34.3 ± 15.7, the “VAS Bad Drug Effect, peak value” ([14]; dose 0.5 mg) was 42.5 ± 23.7 and the “VAS Good Drug Effect, peak value” ([14]; dose 0.5 mg) was 6.5 ± 12.3. For the same substance, the “VAS Opioid Withdrawal, peak value” ([14]; dose 0.5 mg) was 21.0 ± 29.7, the “VAS Sickness, peak value” ([14]; dose 0.5 mg) was 15.8 ± 18.1 and the “Diastolic BP, peak value” ([14]; dose 1.0 mg) was 88.3 ± 12.7 mmHg. The “Heart Rate, peak value” ([14]; dose 1.0 mg) was 71.7 ± 4.9 bpm, the “OOWS (total), peak value” ([14]; dose 1.0 mg) was 5.3 ± 4.0 and the “SOWS (total), peak value” ([14]; dose 1.0 mg) was 4.3 ± 2.8. The “Systolic blood pressure (BP), peak value” ([14]; dose 1.0 mg) was 134.7 ± 26.4 mmHg, the “VAS Any Drug Effect, peak value” ([14]; dose 1.0 mg) was 24.0 ± 21.7 and the “VAS Bad Drug Effect, peak value” ([14]; dose 1.0 mg) was 26.9 ± 33.0. For the same substance, the “VAS Good Drug Effect, peak value” ([14]; dose 1.0 mg) was 1.0 ± 0.0, the “VAS Opioid Withdrawal, peak value” ([14]; dose 1.0 mg) was 13.1 ± 8.1 and the “VAS Sickness, peak value” ([14]; dose 1.0 mg) was 9.0 ± 5.6. The “Would continue after highest dose” value ([14]; individual patients) was “No and Yes (3×)” and the “pupillometry measures (a CNS effect)” value ([14]; up to 1 mg) was “unaffected”.
